In patent US6969702B2, “Compounds and methods for increasing neurogenesis” (priority 2002, dated 2005):
Marks after values point to notes of the source that are not given here. Bridge positions count the residues as written; N and C are the ends. Square brackets hold non-standard residues; d marks the D form. Ends that are not written are not given here. Peptide text beside a SMILES is read from it. d(pGlu) = O=C1CC[C@H](C(=O)O)N1

What was measured:
[1] = tested on: cAMP activation in mouse adult neural stem cells; assay: cAMP detection (HitHunter EFC Cyclic AMP Chemiluminescence Assay); details: for Fold Induction cAMP: vs vehicle
[2] = tested on: Adult neural stem cells; assay: Flow cytometry for early neuronal marker Doublecortin; details: for % Doublecortin-positive cells / Fold Induction (Doublecortin-positive cells): Table 6; for % Doublecortin-positive cells: 4 days; for Fold Induction (Doublecortin-positive cells): vs EGF/FGF
[3] = tested on: mouse adult neural stem cells; assay: ATP-assay: proliferation (ATP levels) of neurosphere-derived cells; details: for Fold Induction ATP: vs vehicle
[4] = Table 2, 10 nM (cAMP concentration)
[5] = Table 2, 1 nM (cAMP concentration)
[6] = Table 2, 100 nM (cAMP concentration)

KYGQVPMCDAGEQCAVRKGARIGKLCDCPRGTSCNSFLLKCL (disulfide 8-26, 14-34, 28-41) [CART (61-102)]
cAMP (pmol/well) [1, 4]: 0.13 ± 0.02 pmol/well | Fold Induction cAMP ([1]; Table 2, 10 nM): 1.2* (10 nM) fold | % Doublecortin-positive cells ([2]; 100 nM): 4.7% | Fold Induction (Doublecortin-positive cells) ([2]; 100 nM): 1.8 fold | ATP (nM ATP/well) ([3]; Table 2, 100 nM, 4 days): 8.3 ± 0.4 nM ATP/well | Fold Induction ATP ([3]; Table 2, 100 nM, 4 days): 1.2** fold

CC(C)C[C@H](NC(=O)[C@H](CCCCN)NC(=O)CNC(=O)[C@H](CC(C)C)NC(=O)[C@@H](NC(=O)[C@@H]1CSSC[C@H](N)C(=O)N[C@@H](CO)C(=O)N[C@@H](CC(N)=O)C(=O)N[C@@H](CC(C)C)C(=O)N[C@@H](CO)C(=O)N[C@@H]([C@@H](C)O)C(=O)N1)C(C)C)C(=O)N[C@@H](CO)C(=O)N[C@@H](CCC(N)=O)C(=O)N[C@@H](CCC(=O)O)C(=O)N[C@@H](CC(C)C)C(=O)N[C@@H](Cc1c[nH]cn1)C(=O)N[C@@H](CCCCN)C(=O)N[C@@H](CC(C)C)C(=O)N[C@@H](CCC(N)=O)C(=O)N[C@H](C(=O)N[C@@H](Cc1ccc(O)cc1)C(=O)N1CCC[C@H]1C(=O)N[C@@H](CCCNC(=N)N)C(=O)N[C@H](C(=O)N[C@@H](CC(N)=O)C(=O)N[C@H](C(=O)NCC(=O)N[C@@H](CO)C(=O)NCC(=O)N[C@H](C(=O)N1CCC[C@H]1C(N)=O)[C@@H](C)O)[C@@H](C)O)[C@@H](C)O)[C@@H](C)O [Thyrocalcitonin (Salmon)]
cAMP (pmol/well) [1, 5]: 0.63 ± 0.23 pmol/well | Fold Induction cAMP ([1]; Table 2, 1 nM): 3.8* (1 nM) fold | % Doublecortin-positive cells ([2]; 100 nM): 3.9% | Fold Induction (Doublecortin-positive cells) ([2]; 100 nM): 1.5 fold | ATP (nM ATP/well) ([3]; Table 2, 1 nM, 4 days): 9.2 ± 0.7 nM ATP/well | Fold Induction ATP ([3]; Table 2, 1 nM, 4 days): 1.3* fold

N=C(N)NCCC[C@@H](N)C(=O)N[C@@H](CCCNC(=N)N)C(=O)N1CCC[C@H]1C(=O)N1C[C@H](O)C[C@H]1C(=O)NCC(=O)N[C@H](C(=O)N[C@@H](CO)C(=O)N[C@@H](C(=O)N1[C@H](C(=O)N[C@@H](CCCNC(=N)N)C(=O)O)C[C@@H]2CCCC[C@@H]21)C1Cc2ccccc2C1)C1Cc2ccccc2C1 [[D-Arg0, Hyp3, Ig15, D-Ig17, Oic8]-Bradykinin]
cAMP (pmol/well) [1, 4]: 0.17 ± 0.02 pmol/well | % Doublecortin-positive cells ([2]; 100 nM): 3.6% | ATP (nM ATP/well) ([3]; Table 2, 100 nM, 4 days): 13.1 ± 2.1 nM ATP/well

CSCC[C@H](NC(=O)[C@H](CCCNC(=N)N)NC(=O)[C@H](Cc1ccc(O)cc1)NC(=O)[C@@H]1CCCN1C(=O)CNC(=O)[C@H](CCC(=O)O)NC(=O)[C@H](CC(=O)O)NC(=O)[C@H](CCCCN)NC(=O)[C@H](CCCCN)NC(=O)[C@H](CCC(=O)O)NC(=O)[C@H](C)N)C(=O)N[C@@H](CCC(=O)O)C(=O)N[C@@H](Cc1c[nH]cn1)C(=O)N[C@@H](Cc1ccccc1)C(=O)N[C@@H](CCCNC(=N)N)C(=O)N[C@@H](Cc1c[nH]c2ccccc12)C(=O)NCC(=O)N[C@@H](CO)C(=O)N1CCC[C@H]1C(=O)N1CCC[C@H]1C(=O)N[C@@H](CCCCN)C(=O)N[C@@H](CC(=O)O)C(=O)O [β-MSH, β-Melanocyte Stimulating Hormone]
cAMP (pmol/well) [1, 4]: 0.23 ± 0.02 pmol/well | % Doublecortin-positive cells ([2]; 100 nM): 4.1% | ATP (nM ATP/well) ([3]; Table 2, 100 nM, 4 days): 13.6 ± 1.6 nM ATP/well

CSCC[C@H](NC(=O)[C@H](CC(C)C)NC(=O)CNC(=O)[C@@H](NC(=O)[C@H](Cc1ccccc1)NC(=O)[C@H](CO)NC(=O)[C@H](CC(=O)O)NC(=O)[C@@H](NC(=O)[C@H](CCCCN)NC(=O)[C@@H](N)Cc1c[nH]cn1)[C@@H](C)O)C(C)C)C(N)=O [α-Neurokinin]
cAMP (pmol/well) [1, 4]: 0.11 ± 0.03 pmol/well | % Doublecortin-positive cells ([2]; 100 nM): 4.6% | ATP (nM ATP/well) ([3]; Table 2, 100 nM, 4 days): 11.0 ± 1.4 nM ATP/well

CC(C)C[C@H](NC(=O)[C@H](Cc1ccccc1)NC(=O)CNC(=O)CNC(=O)[C@@H](N)Cc1ccc(O)cc1)C(=O)N[C@@H](CCCNC(=N)N)C(=O)N[C@@H](CCCCN)C(=O)N[C@@H](Cc1ccc(O)cc1)C(=O)N1CCC[C@H]1C(=O)N[C@@H](CCCCN)C(=O)O [α-Neo-Endorphin] (H-YGGFLRKYPK-OH; N-terminus and C-terminus assumed)
cAMP (pmol/well) [1, 5]: 0.36 ± 0.09 pmol/well | Fold Induction cAMP ([1]; Table 2, 1 nM): 1.7* (1 nM) fold | % Doublecortin-positive cells ([2]; 100 nM): 4.0% | Fold Induction (Doublecortin-positive cells) ([2]; 100 nM): 1.6 fold | ATP (nM ATP/well) ([3]; Table 2, 100 nM, 4 days): 13.8 ± 2.1 nM ATP/well | Fold Induction ATP ([3]; Table 2, 100 nM, 4 days): 1.8** fold

C=C[C@@]1(C)CC(=O)[C@]2(O)[C@@]3(C)[C@@H](O)CCC(C)(C)[C@@H]3[C@H](O)[C@H](OC(C)=O)[C@@]2(C)O1 [Forskolin, forskolin]
fold induction at 1 µM ([1]; Mus musculus, Neural stem cell, 0.25 h, read-out: Fold Induction cAMP): 3.1 | cAMP (pmol/well) ([1]; Table 1, 1000 nM, after 15 minutes): 0.07 ± 0.01 pmol/well | fold induction at 10 µM ([2]; Mus musculus, Neural stem cell, read-out: Fold Induction (Doublecortin-positive cells)): 2.5 | % Doublecortin-positive cells ([2]; 10 μM): 6.3% | fold induction at 1 µM ([3]; Mus musculus, Neural stem cell, 96 h, read-out: Fold Induction ATP): 1.1 | ATP (nM ATP/well) ([3]; Table 1, 1000 nM, 4 days in culture): 10.4 ± 2.4 nM ATP/well

CC(C)C[C@H](NC(=O)[C@@H](Cc1c[nH]c2ccccc12)NC(=O)[C@H](Cc1ccc(O)cc1)NC(=O)[C@H](CO)NC(=O)[C@@H](Cc1c[nH]c2ccccc12)NC(=O)[C@@H](Cc1ccccc1)NC(=O)[C@H]1CCC(=O)N1)C(=O)N[C@@H](CCCNC(=N)N)C(=O)N1CCC[C@H]1C(=O)NCC(N)=O [[D-pGlu1,D-Phe2, D-Trp3,6]-LH-RH] ([d(pGlu)][dF][dW]SY[dW]LRPG-NH2; C-terminus assumed)
cAMP (pmol/well) [1, 5]: 0.07 ± 0.02 pmol/well | % Doublecortin-positive cells ([2]; 100 nM): 3.4% | ATP (nM ATP/well) ([3]; Table 2, 100 nM, 4 days): 11.1 ± 0.4 nM ATP/well

CNC(=O)[C@H]1O[C@@H](n2cnc3c(N)ncnc32)[C@H](O)[C@@H]1O [MECA]
cAMP (pmol/well) [1, 6]: 3.89 ± 1.00 pmol/well | Fold Induction cAMP ([1]; Table 2, 100 nM): 2.1* fold | % Doublecortin-positive cells ([2]; 10 μM): 2.2% | Fold Induction (Doublecortin-positive cells) ([2]; 10 μM): 0.9 fold | ATP (nM ATP/well) ([3]; Table 2, 100 nM, 4 days): 7.4 ± 0.7 nM ATP/well | Fold Induction ATP ([3]; Table 2, 100 nM, 4 days): 1.6** fold

NC(=O)CC[C@@H]1NC(=O)[C@H](Cc2ccccc2)NC(=O)[C@H](Cc2ccc(O)cc2)NC(=O)CCSSC[C@@H](C(=O)N2CCC[C@H]2C(=O)N[C@H](CCCN=C(N)N)C(=O)NCC(N)=O)NC(=O)[C@H](CC(N)=O)NC1=O [DDAVP]
cAMP (pmol/well) [1, 4]: 0.27 ± 0.02 pmol/well | Fold Induction cAMP ([1]; Table 2, 10 nM): 1.9*** (10 nM) fold | % Doublecortin-positive cells ([2]; 100 nM): 4.6% | Fold Induction (Doublecortin-positive cells) ([2]; 100 nM): 1.8 fold | ATP (nM ATP/well) ([3]; Table 2, 100 nM, 4 days): 11.5 ± 1.4 nM ATP/well | Fold Induction ATP ([3]; Table 2, 100 nM, 4 days): 1.5* fold

CSCC[C@H](NC(=O)[C@H](Cc1ccc(O)cc1)NC(=O)[C@@H](N)CC(=O)O)C(=O)NCC(=O)N[C@@H](Cc1c[nH]c2ccccc12)C(=O)N[C@@H](CCSC)C(=O)N[C@@H](CC(=O)O)C(=O)N[C@@H](Cc1ccccc1)C(N)=O [Cholecystokinin Octapeptide [CCK(26-33)]]
cAMP (pmol/well) [1, 6]: 0.27 ± 0.06 pmol/well | % Doublecortin-positive cells ([2]; 100 nM): 3.2% | ATP (nM ATP/well) ([3]; Table 2, 10 nM, 4 days): 9.8 ± 0.4 nM ATP/well

CSCC[C@@H]1NC(=O)[C@H](C)NC(=O)[C@H]([C@@H](C)O)NC(=O)CNC(=O)[C@H](CC(C)C)NC(=O)[C@H](CCCCN)NC(=O)[C@H](CCCNC(=N)N)NC(=O)[C@@H]2CSSC[C@@H]3NC(=O)[C@@H]4CCCN4C(=O)[C@H](C(C)C)NC(=O)[C@H](CCC(N)=O)NC(=O)[C@H](CCC(N)=O)NC(=O)CNC(=O)[C@H](CC(C)C)NC(=O)[C@@H]4CSSC[C@H](NC(=O)[C@H]([C@@H](C)O)NC(=O)[C@H](C)NC(=O)[C@H](CSSC[C@@H](C(=O)N[C@@H](CO)C(=O)N[C@@H](CCCNC(=N)N)C(=O)N[C@H](C(N)=O)[C@@H](C)O)NC(=O)[C@@H]5CCCN5C(=O)[C@H](CC(N)=O)NC1=O)NC(=O)[C@@H]1CCCN1C(=O)[C@H](CC(=O)O)NC(=O)[C@H](CSSC[C@H](N)C(=O)N[C@@H](C(C)C)C(=O)N[C@@H](CCCNC(=N)N)C(=O)N[C@@H](CC(C)C)C(=O)N[C@@H](Cc1c[nH]cn1)C(=O)N[C@@H](CCC(=O)O)C(=O)N[C@@H](CO)C(=O)N4)NC3=O)C(=O)N[C@@H](Cc1ccc(O)cc1)C(=O)N[C@H]1CSSC[C@H](NC(=O)[C@H](Cc3ccccc3)NC(=O)[C@H](C)NC(=O)[C@H](CC(N)=O)NC(=O)[C@H](Cc3ccccc3)NC(=O)[C@H](Cc3ccccc3)NC(=O)[C@H](CCCNC(=N)N)NC1=O)C(=O)N[C@@H](Cc1ccc(O)cc1)C(=O)N2 [Agouti Related Protein (87-132)-Amide (Human)]
cAMP (pmol/well) [1, 4]: 0.5 ± 0.20 pmol/well | Fold Induction cAMP ([1]; Table 2, 10 nM): 2.4* fold | % Doublecortin-positive cells ([2]; 100 nM): 2.4% | Fold Induction (Doublecortin-positive cells) ([2]; 100 nM): 0.9 fold | ATP (nM ATP/well) ([3]; Table 2, 10 nM, 4 days): 11.2 ± 1.7 nM ATP/well | Fold Induction ATP ([3]; Table 2, 10 nM, 4 days): 1.4* fold

N=C(N)NCCC[C@H](N)C(=O)N1CCC[C@H]1C(=O)N1CCC[C@H]1C(=O)NCC(=O)N[C@@H](Cc1ccccc1)C(=O)N[C@@H](CO)C(=O)N1CCC[C@H]1C(=O)N[C@@H](Cc1ccccc1)C(=O)O [[Des-Arg9]-Bradykinin]
cAMP (pmol/well) [1, 5]: 0.06 ± 0.01 pmol/well | Fold Induction cAMP ([1]; Table 2, 1 nM): 1.7*** fold | % Doublecortin-positive cells ([2]; 100 nM): 4.5% | Fold Induction (Doublecortin-positive cells) ([2]; 100 nM): 1.8 fold | ATP (nM ATP/well) ([3]; Table 2, 1 nM, 4 days): 10.4 ± 1.0 nM ATP/well | Fold Induction ATP ([3]; Table 2, 1 nM, 4 days): 1.2* fold

CC(C)C[C@H](NC(=O)[C@H](Cc1ccccc1)NC(=O)CNC(=O)[C@H](NC(=O)[C@@H](N)Cc1ccc(O)cc1)[C@H](C)O)C(=O)N[C@H](C(=O)O)[C@@H](C)O [DTLET]
% Doublecortin-positive cells ([2]; 100 nM): 4.1% | ATP (nM ATP/well) ([3]; Table 2, 10 nM, 4 days): 9.2 ± 0.9 nM ATP/well
